Where “and” joins values, the source holds several entries; their conditions need not be identical. Equal values may be shown once. Inconclusive results and toxic doses are left out. No stated cut-off is given here; in the data, active means T/C of 150% or more; inactive means T/C below 125%.
Tested on: L1210 leukemia ip in BDF1 mice, survival T/C
Assay: NCI In Vivo Anticancer Drug Screen. Data for tumor model L1210 Leukemia (intraperitoneal) in B6D2F1 (BDF1) mice
Settings: endpoint: mean survival time, higher = longer survival
How it was run: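 Each compound was tested against a transplantable tumor grown in mice. The endpoint was survival, with treated animals benchmarked against vehicle controls as a simple ratio.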

[1] = dose: 100.0 mg/kg/injection, schedule: Q01DX001 (ip), vehicle: saline with Tween-80
[2] = dose: 12.5 mg/kg/injection, schedule: Q01DX009 (ip), vehicle: Klucel (hydroxypropylcellulose) (HPC)
[3] = dose: 25.0 mg/kg/injection, schedule: Q01DX009 (ip), vehicle: Klucel (hydroxypropylcellulose) (HPC)
[4] = dose: 50.0 mg/kg/injection, schedule: Q01DX009 (ip), vehicle: Klucel (hydroxypropylcellulose) (HPC)
[5] = dose: 100.0 mg/kg/injection, schedule: Q04DX002 (ip), vehicle: Klucel (hydroxypropylcellulose) (HPC)
[6] = dose: 200.0 mg/kg/injection, schedule: Q04DX002 (ip), vehicle: Klucel (hydroxypropylcellulose) (HPC)
[7] = dose: 400.0 mg/kg/injection, schedule: Q04DX002 (ip), vehicle: Klucel (hydroxypropylcellulose) (HPC)
[8] = dose: 50.0 mg/kg/injection, schedule: Q04DX003 (ip), vehicle: saline with Tween-80
[9] = dose: 100.0 mg/kg/injection, schedule: Q01DX001 (ip), vehicle: saline
[10] = dose: 200.0 mg/kg/injection, schedule: Q01DX001 (ip), vehicle: saline
[11] = dose: 400.0 mg/kg/injection, schedule: Q01DX001 (ip), vehicle: saline
[12] = dose: 100.0 mg/kg/injection, schedule: Q01DX001 (ip), vehicle: Klucel (hydroxypropylcellulose) (HPC)
[13] = dose: 100.0 mg/kg/injection, schedule: Q01DX009 (ip), vehicle: Klucel (hydroxypropylcellulose) (HPC)
[14] = dose: 100.0 mg/kg/injection, schedule: Q04DX003 (ip), vehicle: Klucel (hydroxypropylcellulose) (HPC)
[15] = dose: 200.0 mg/kg/injection, schedule: Q01DX001 (ip), vehicle: Klucel (hydroxypropylcellulose) (HPC)
[16] = dose: 200.0 mg/kg/injection, schedule: Q01DX009 (ip), vehicle: Klucel (hydroxypropylcellulose) (HPC)
[17] = dose: 200.0 mg/kg/injection, schedule: Q04DX003 (ip), vehicle: Klucel (hydroxypropylcellulose) (HPC)
[18] = dose: 400.0 mg/kg/injection, schedule: Q01DX001 (ip), vehicle: Klucel (hydroxypropylcellulose) (HPC)
[19] = dose: 400.0 mg/kg/injection, schedule: Q01DX009 (ip), vehicle: Klucel (hydroxypropylcellulose) (HPC)
[20] = dose: 400.0 mg/kg/injection, schedule: Q04DX003 (ip), vehicle: Klucel (hydroxypropylcellulose) (HPC)
[21] = dose: 25.0 mg/kg/injection, schedule: Q04DX002 (ip), vehicle: Klucel (hydroxypropylcellulose) (HPC)
[22] = dose: 50.0 mg/kg/injection, schedule: Q04DX002 (ip), vehicle: Klucel (hydroxypropylcellulose) (HPC)

Measured: T/C

CCCCCCCC/C=C\CCCCCCCCNP(=O)(OC)OC
inactive: dose: 25.0 mg/kg/injection, schedule: Q04DX002 (ip), vehicle: saline with Tween-80 96 % of control | dose: 50.0 mg/kg/injection, schedule: Q04DX002 (ip), vehicle: saline with Tween-80 92 % of control | dose: 100.0 mg/kg/injection, schedule: Q04DX002 (ip), vehicle: saline with Tween-80 101 % of control and 92 % of control

Nc1nc2nc(CCc3ccccc3)cnc2c(=O)[nH]1
inactive: dose: 25.0 mg/kg/injection, schedule: Q01DX001 (ip), vehicle: saline with Tween-80 96 % of control | dose: 50.0 mg/kg/injection, schedule: Q01DX001 (ip), vehicle: saline with Tween-80 93 % of control | [1] 90 % of control

NC(N)=NC(N)=Nc1cc(C(F)(F)F)ccc1Cl
inactive: [2] 95 % of control | [3] 95 % of control | [4] 113 % of control

COC(=O)C1(c2ccccc2)C(c2ccccc2)=C(c2ccccc2)C(c2ccccc2)CC1c1ccccc1 (stereo unspecified)
inactive: [5] 103 % of control | [6] 96 % of control | [7] 92 % of control

Cc1cccc(C(=O)C=C(C(F)(F)F)C(F)(F)F)c1
inactive: dose: 12.5 mg/kg/injection, schedule: Q04DX003 (ip), vehicle: saline with Tween-80 103 % of control | dose: 25.0 mg/kg/injection, schedule: Q04DX003 (ip), vehicle: saline with Tween-80 111 % of control | [8] 102 % of control and 118 % of control

COc1cccc(/C=C2\SC(=S)NC2=O)c1
inactive: [9] 101 % of control | [10] 95 % of control | [11] 95 % of control

COc1ccc(NC(=O)NCc2ccc(C)cc2)cc1
inactive: [5] 104 % of control | [6] 104 % of control | [7] 96 % of control

COc1ccc(C(O)c2cnc(C)n2Cc2ccccc2)cc1 (stereo unspecified)
inactive: [12] 93 % of control | [13] 101 % of control and 105 % of control | [5] 94 % of control and 98 % of control and 106 % of control | [14] 93 % of control | [15] 102 % of control | [16] 100 % of control and 101 % of control | [6] 92 % of control and 95 % of control and 88 % of control | [17] 93 % of control | [18] 97 % of control | [19] 96 % of control and 90 % of control | [7] 95 % of control and 98 % of control and 91 % of control | [20] 95 % of control

Nc1nc(=S)nc(N)[nH]1
inactive: dose: 25.0 mg/kg/injection, schedule: Q01DX009 (ip), vehicle: saline 101 % of control | dose: 50.0 mg/kg/injection, schedule: Q01DX009 (ip), vehicle: saline 103 % of control | dose: 100.0 mg/kg/injection, schedule: Q01DX009 (ip), vehicle: saline 97 % of control

N#CCc1ccc(N=Nc2c(N)nc(N)[nH]c2=O)cc1
inactive: [9] 98 % of control | [10] 96 % of control | [11] 96 % of control

O=C(O)C1CCC(CC2CC3CCC2C3)CC1 (stereo unspecified)
inactive: dose: 100.0 mg/kg/injection, schedule: Q01DX009 (ip), vehicle: saline with Tween-80 90 % of control | dose: 200.0 mg/kg/injection, schedule: Q01DX009 (ip), vehicle: saline with Tween-80 96 % of control

COc1ccc(NC(=O)c2cccc(C(=O)Nc3ccc(OC)cc3Cl)c2)c(Cl)c1
inactive: [5] 97 % of control | [6] 97 % of control | [7] 90 % of control

CNC(=O)Oc1cccc2c1OC(C)(C)C2
inactive: dose: 1.56 mg/kg/injection, schedule: Q01DX001 (ip), vehicle: Klucel (hydroxypropylcellulose) (HPC) 96 % of control | dose: 3.13 mg/kg/injection, schedule: Q01DX001 (ip), vehicle: Klucel (hydroxypropylcellulose) (HPC) 103 % of control

CCC(C)N1C(=O)CCC1=O (stereo unspecified)
inactive: dose: 150.0 mg/kg/injection, schedule: Q01DX001 (ip), vehicle: saline 101 % of control | dose: 300.0 mg/kg/injection, schedule: Q01DX001 (ip), vehicle: saline 101 % of control | dose: 600.0 mg/kg/injection, schedule: Q01DX001 (ip), vehicle: saline 101 % of control

COc1ccccc1-n1c(O)c(N=Nc2ccc(Br)cc2)c(=O)n(-c2ccccc2OC)c1=S
inactive: [12] 103 % of control | [15] 105 % of control | [18] 92 % of control

CNc1c(C)cccc1C
inactive: dose: 50.0 mg/kg/injection, schedule: Q04DX003 (ip), vehicle: Klucel (hydroxypropylcellulose) (HPC) 105 % of control | [12] 104 % of control | [14] 94 % of control | [15] 102 % of control | [17] 101 % of control | [18] 107 % of control

CC(=O)CCCCc1ccccc1
inactive: [5] 88 % of control | [6] 102 % of control | [7] 88 % of control

O=C1NC(=O)C2(CCc3ccccc3C2)N1 (stereo unspecified)
inactive: [4] 96 % of control | [13] 96 % of control | [14] 100 % of control | dose: 100.0 mg/kg/injection, schedule: Q04DX003 (ip), vehicle: acetone 96 % of control | [16] 93 % of control | [17] 97 % of control | dose: 200.0 mg/kg/injection, schedule: Q04DX003 (ip), vehicle: acetone 95 % of control | [20] 97 % of control | dose: 400.0 mg/kg/injection, schedule: Q04DX003 (ip), vehicle: acetone 95 % of control

CNC(=O)Oc1ccc(/C=N/NC(=O)c2ccncc2)cc1OC
inactive: [13] 97 % of control | [16] 97 % of control

O=C(O)c1cccc(N2C(=O)CSC2=S)c1
inactive: [21] 94 % of control | [22] 93 % of control and 91 % of control | [5] 93 % of control and 102 % of control | [6] 88 % of control

CCOC(=O)Nc1cc(N)c([N+](=O)[O-])c(NC(c2ccccc2)c2ccccc2)n1
inactive: dose: 100.0 mg/kg/injection, schedule: Q01DX001 (ip), vehicle: carboxymethylcellulose (CMC) 95 % of control | dose: 200.0 mg/kg/injection, schedule: Q01DX001 (ip), vehicle: carboxymethylcellulose (CMC) 87 % of control | dose: 400.0 mg/kg/injection, schedule: Q01DX001 (ip), vehicle: carboxymethylcellulose (CMC) 92 % of control

O=[N+]1c2ccccc2N([O-])C2CCCCC21 (stereo unspecified)
inactive: [5] 93 % of control | [6] 93 % of control | [7] 104 % of control

Cc1ccc(NCC(=O)NN)cc1
inactive: [5] 104 % of control | [6] 107 % of control

c1ccc(C2SCc3ccc(cc3)Sc3ccc(cc3)CS2)cc1
inactive: [1] 91 % of control | dose: 200.0 mg/kg/injection, schedule: Q01DX001 (ip), vehicle: saline with Tween-80 88 % of control | dose: 400.0 mg/kg/injection, schedule: Q01DX001 (ip), vehicle: saline with Tween-80 91 % of control

ClCC1=NCCCN1
inactive: dose: 3.13 mg/kg/injection, schedule: Q01DX009 (ip), vehicle: Klucel (hydroxypropylcellulose) (HPC) 93 % of control | dose: 6.25 mg/kg/injection, schedule: Q01DX009 (ip), vehicle: Klucel (hydroxypropylcellulose) (HPC) 97 % of control | [2] 97 % of control | dose: 12.5 mg/kg/injection, schedule: Q04DX002 (ip), vehicle: Klucel (hydroxypropylcellulose) (HPC) 97 % of control | [3] 97 % of control | [21] 104 % of control | [4] 97 % of control | [22] 104 % of control | [5] 98 % of control

Cc1ccc(S(=O)(=O)OCC2C3CCC(C3=O)C2COS(=O)(=O)c2ccc(C)cc2)cc1 (stereo unspecified)
inactive: [8] 98 % of control | dose: 100.0 mg/kg/injection, schedule: Q04DX003 (ip), vehicle: saline with Tween-80 96 % of control and 106 % of control | dose: 200.0 mg/kg/injection, schedule: Q04DX003 (ip), vehicle: saline with Tween-80 98 % of control | dose: 400.0 mg/kg/injection, schedule: Q04DX003 (ip), vehicle: saline with Tween-80 86 % of control

COc1ccc(NC(=O)COc2ccccc2Br)cc1
inactive: [13] 95 % of control | [14] 101 % of control | [16] 97 % of control | [17] 96 % of control | [19] 93 % of control | [20] 93 % of control

— PubChem BioAssay AID248 (DTP/NCI, 2004)
